Broadly, the IC50 is the concentration that gives 50% inhibition. Higher therefore signals lower potency.

SMILES strings stand for the structures. Read-outs that look alike come from different tables or passages of the source.

Here are results for eleven compounds from patent US20220056014A1, “PHENYLPYRROLIDINE COMPOUND AND USE THEREOF” (WUHAN HUMANWELL INNOVATIVE DRUG RESEARCH AND DEVELOPMENT …, priority 2018, published 2022).

The test system of test [1] is LPS-induced secretion of TNFα in human PBMCs. Briefly: LPS-induced secretion of TNFα in human PBMCs. Type of test: cell-based. As to conditions: Homo sapiens, PBMC, 24 h, LPS 10 ng/ml. The protocol: Extraction process of peripheral blood mononuclear cells (PBMCs): one unit of human peripheral blood concentrate (concentrated from 200 cc peripheral blood) was sucked and added with 0.9% saline until a total volume reached 120 ml, and mixed homogenously. 15 ml Lymphoprep™ was added into 50 ml centrifuge tube, and then 30 ml of diluted blood concentrate was carefully and slowly added thereto, allowing the diluted blood to be stacked on the layered solution and preventing the diluted blood from being mixed into the separated solutions or breaking the surface of the separated solution, wherein a ratio of Lymphoprep™ to the diluted blood was 1:2. The centrifuge tubes were balanced and placed in a horizontal centrifuge (eppendorf, 5810R), and centrifuged at 800 g and 20° C. for 20 min. The centrifuge tubes were carefully taken out. PBMCs were absorbed by directly inserting the Pasteur pipette deep into the buffy coat. The obtained PBMCs were gently pipetted with 3 times the volume of 0.9% normal saline or PBS (without calcium or magnesium ions) to mix homogenously. After that, the cells were centrifuged at 250 g and 20° C. for 10 min, the supernatant was removed to remove the platelets remaining in the cell suspension. The obtained cell pellet was resuspended in 20 ml of PBS, and counted using trypan blue.
Compound screening by using PBMCs: the PBMC suspension obtained above was centrifuged to remove PBS, then resuspended in complete medium (RPMI1640+10% FBS+1% P/S) and counted. 100 μL/well of the cells was seeded at 5×10^4/well. Each of the compounds to be screened was prepared as 4 times the final concentration, which was added to the cells at 50 μL/well. The compound was pre-incubated for 30 min in advance of being added to the cells. Meanwhile, control wells to which the compound was not added were provided. A final stimulation concentration of LPS was 10 ng/ml, and LPS was formulated as 4 times the final stimulation concentration, and added to the cells at 50 μL/well. Meanwhile, control wells, i.e., wells without LPS were provided. The cells were incubated for 24 h, and 10% of the supernatant was collected for detection. The obtained supernatant was detected using Invitrogen's Human TNF-α kit (REF: 88-7346-88).

A further test addresses T1, PDE4B (Homo sapiens, UniProt Q07343).
T1 construct: purchased Enzo Life Sciences BML-SE522-0020
Put plainly: PDE4B enzyme activity assay (PDE-Glo Phosphodiesterase Assay Kit). Type of test: biochemical. The following applies: for IC50 (PDE4D)/IC50 (PDE4B): selectivity ratio. The protocol:
(§1) For the previously synthesized compounds, the inhibitory activity of the compounds against PDE4B and against PDE4D was tested by using PDE-Glo Phosphodiesterase Assay Kit (promega, V1361). In short, in accordance with the instructions of the kit, a concentrated stock solution (10 mM) the compound to be tested was first prepared with DMSO solvent, and the concentrated stock solution was then diluted into 10× working solutions with a Reaction buffer provided in the kit. With the Reaction buffer, on ice, PDE4B enzyme (Enzo Life Sciences, BML-SE522-0020) was diluted to a concentration of 1 ng/μl to obtain a PDE4B enzyme working solution, and PDE4D enzyme (Enzo Life Sciences, BML-SE523-0020) was diluted to a concentration of 4 ng/μl to obtain a PDE4D enzyme working solution. 1.5 μl of the PDE4B working solution (or PDE4D working solution) and 1 μl of the compound working solution were added to wells of 384-well plate (Corning, CLS3707), and incubated with shaking at room temperature for 5 min, followed by adding 2.5 μl of cAMP (in Reaction buffer, 2 μM) per well, incubating with shaking at room temperature for 20 min. 2.5 μl/well of 1× Termination Buffer, and then 2.5 μl/well of 1× Detection Buffer were added, and further incubated with shaking at room temperature for 20 min. 10 μl/well of 1× Kinase-Glo was added, and the plate was incubated with shaking at room temperature for 10 min, and bioluminescence was measured with PheraStar instrument. The experimental results were plotted with GraphPad Prism software, and fitted to calculate IC50 of each compound.

Another test addresses T2, PDE4D (Homo sapiens, UniProt Q08499).
T2 construct: purchased Enzo Life Sciences BML-SE523-0020
Briefly: PDE4D enzyme activity assay (PDE-Glo Phosphodiesterase Assay Kit). Type of test: biochemical. The protocol: as §1

In test [2] the test system is LPS-stimulated TNF-α release. Put plainly: LPS-stimulated TNF-α release in mice. Type of test: in vivo, Balb/c mice. The following applies: Mus musculus, oral 50 mg/kg (positive control 100 mg/kg), 1 mg/kg LPS i.p. The protocol: 18 Balb/c mice (6 to 8 weeks) were randomly assigned to a blank group, a model group, and an administration group, 6 mice in each group. A vehicle (blank group, model group) or 50 mg/kg compound (administration group, where the dose for the positive control group was 100 mg/kg) was orally administrated. 30 min after the oral administration, PBS (blank group) or 1 mg/kg LPS (model group and administration group) was injected intraperitoneally. 90 min or 120 min after the intraperitoneal injection, blood was collected from the hearts of the mice, and still stood at 2-8° C. for 4 hours, and centrifuged at 5000 rpm for 10 min to collect the serum. The serum was stored at −80° C. for testing.
The serum TNF-α level was tested using a mouse TNF-α detection kit (Mouse TNFa ELISA kit: Biolegend, Cat: 430904). The inhibitory activity of the compounds against the TNF-α release was calculated based on the serum TNF-α level.
Inhibitory activity of compound %={1−(TNFα concentration of administration group−TNFα concentration of blank group)/(TNFα concentration of model group−TNFα concentration of blank group)}×100%.

Where [3] appears, read: 2 h, blood 120 min after LPS, read-out: Inhibition rate (%) of LPS-stimulated TNF-α release, 120 min.
[4] abbreviates: 1.5 h, blood 90 min after LPS, read-out: Inhibition rate (%) of LPS-stimulated TNF-α release, 90 min.

T2 sequence (Q08499 whole entry): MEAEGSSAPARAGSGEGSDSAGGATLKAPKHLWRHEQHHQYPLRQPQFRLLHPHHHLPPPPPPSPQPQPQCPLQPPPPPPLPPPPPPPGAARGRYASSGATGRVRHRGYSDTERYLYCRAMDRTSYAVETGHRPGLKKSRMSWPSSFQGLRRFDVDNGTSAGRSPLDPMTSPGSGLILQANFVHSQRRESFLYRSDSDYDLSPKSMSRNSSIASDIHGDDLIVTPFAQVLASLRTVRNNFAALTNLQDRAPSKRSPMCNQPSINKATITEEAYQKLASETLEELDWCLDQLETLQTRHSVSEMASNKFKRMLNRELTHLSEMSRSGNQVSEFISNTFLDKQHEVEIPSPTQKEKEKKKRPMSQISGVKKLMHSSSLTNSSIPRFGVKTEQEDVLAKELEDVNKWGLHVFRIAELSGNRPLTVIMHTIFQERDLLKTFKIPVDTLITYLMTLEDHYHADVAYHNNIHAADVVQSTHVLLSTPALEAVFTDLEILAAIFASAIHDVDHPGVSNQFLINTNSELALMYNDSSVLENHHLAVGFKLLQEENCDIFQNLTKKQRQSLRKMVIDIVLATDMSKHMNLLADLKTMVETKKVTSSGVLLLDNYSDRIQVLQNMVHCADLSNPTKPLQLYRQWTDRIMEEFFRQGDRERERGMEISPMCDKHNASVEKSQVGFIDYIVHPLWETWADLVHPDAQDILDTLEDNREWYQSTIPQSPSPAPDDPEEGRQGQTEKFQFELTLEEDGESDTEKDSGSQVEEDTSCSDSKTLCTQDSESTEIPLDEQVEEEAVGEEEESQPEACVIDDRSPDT
T1 sequence (Q07343 whole entry): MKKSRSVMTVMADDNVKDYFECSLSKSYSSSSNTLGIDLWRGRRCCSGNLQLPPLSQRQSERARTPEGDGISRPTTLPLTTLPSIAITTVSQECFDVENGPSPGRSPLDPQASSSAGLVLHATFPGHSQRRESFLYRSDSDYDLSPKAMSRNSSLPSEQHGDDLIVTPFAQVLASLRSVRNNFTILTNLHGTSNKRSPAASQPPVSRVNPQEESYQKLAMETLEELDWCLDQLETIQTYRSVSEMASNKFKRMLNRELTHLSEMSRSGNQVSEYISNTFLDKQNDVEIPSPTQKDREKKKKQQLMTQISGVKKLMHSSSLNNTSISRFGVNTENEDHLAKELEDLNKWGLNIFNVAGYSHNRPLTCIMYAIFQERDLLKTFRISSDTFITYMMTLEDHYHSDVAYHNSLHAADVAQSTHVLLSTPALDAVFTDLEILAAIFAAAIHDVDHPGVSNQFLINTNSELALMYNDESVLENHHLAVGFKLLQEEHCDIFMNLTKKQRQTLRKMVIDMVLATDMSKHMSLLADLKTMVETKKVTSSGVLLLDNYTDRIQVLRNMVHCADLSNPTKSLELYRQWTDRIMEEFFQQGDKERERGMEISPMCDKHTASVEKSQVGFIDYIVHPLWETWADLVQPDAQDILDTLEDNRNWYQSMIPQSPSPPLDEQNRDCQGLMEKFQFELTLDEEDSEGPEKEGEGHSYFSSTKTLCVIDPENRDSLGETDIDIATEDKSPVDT

Turning to `COc1ccc(N2CC(Oc3cc([C@@H]4CN(C(=O)[C@@H](O)CO)C[C@@]4(C)[C@@H](C)O)ccc3OC)C2)nc1` [Compound 015, (S)-2,3-dihydroxy-1-((3S,4S)-3-((R)-1-hydroxyethyl)-4-(4-methoxy-3-((1-(5-methoxypyridin-2-yl)azetidin-3-yl)oxy)phenyl)-3-methylpyrrolidin-1-yl)propan-1-one], the IC50 in test [1] was 3.34 nM; against PDE4B, 0.68 nM; on PDE4D, 0.87 nM. Further, at PDE4B, the “IC50 (PDE4D)/IC50 (PDE4B)” value is 1.28.

For `COc1ccc([C@@H]2CN(C(=O)[C@@H](O)CO)C[C@@]2(C)[C@@H](C)O)cc1OC1CN(c2cc(C)c(F)cn2)C1` [Compound 025, (S)-1-((3S,4S)-4-(3-((1-(5-fluoro-4-methylpyridin-2-yl)azetidin-3-yl)oxy)-4-methoxyphenyl)-3-((R)-1-hydroxyethyl)-3-methylpyrrolidin-1-yl)-2,3-dihydroxypropan-1-one], the results for the IC50 (in test [1]; against PDE4B; against PDE4D) were 3.26 nM, 0.88 nM and 2.16 nM, respectively. At PDE4B, the “IC50 (PDE4D)/IC50 (PDE4B)” value was determined as 2.45.

Turning to `COc1ccc([C@@H]2CN(C(=O)[C@@H](O)CO)C[C@@]2(C)[C@@H](C)O)cc1OC1CN(c2ncc(Cl)cc2F)C1` [Compound 009, (S)-1-((3S,4S)-4-(3-((1-(5-chloro-3-fluoropyridin-2-yl)azetidin-3-yl)oxy)-4-methoxyphenyl)-3-((R)-1-hydroxyethyl)-3-methylpyrrolidin-1-yl)-2,3-dihydroxypropan-1-one], the concentration for half-maximal inhibition (IC50) in test [1] is 7.57 nM; on PDE4B, 0.78 nM; against PDE4D, 4.67 nM. Moreover, the inhibition in vivo at 50 mg/kg in test [2] (setting [3]) is 47.6%. Moreover, the “IC50 (PDE4D)/IC50 (PDE4B)” value at PDE4B stood at 5.99.

As for `COc1ccc([C@@H]2CN(C(=O)[C@@H](O)CO)C[C@@]2(C)[C@@H](C)O)cc1OC1CN(c2ncc(F)cc2Cl)C1` [Compound 014, (S)-1-((3S,4S)-4-(3-((1-(3-chloro-5-fluoropyridin-2-yl)azetidin-3-yl)oxy)-4-methoxyphenyl)-3-((R)-1-hydroxyethyl)-3-methylpyrrolidin-1-yl)-2,3-dihydroxypropan-1-one], the concentration for half-maximal inhibition (IC50) in test [1] came out at 15.1 nM; on PDE4B, 6.65 nM; against PDE4D, 6.02 nM. Further, the “IC50 (PDE4D)/IC50 (PDE4B)” value on PDE4B worked out at 0.91.

In the case of `COc1ccc([C@@H]2CN(C(=O)[C@@H](O)CO)C[C@@]2(C)[C@@H](C)O)cc1OC1CN(c2ncc(C)cc2C)C1` [Compound 021, (S)-1-((3S,4S)-4-(3-((1-(3,5-dimethylpyridin-2-yl)azetidin-3-yl)oxy)-4-methoxyphenyl)-3-((R)-1-hydroxyethyl)-3-methylpyrrolidin-1-yl)-2,3-dihydroxypropan-1-one], the values for the IC50 (in test [1]; against PDE4B; on PDE4D) were 14.1 nM, 4.15 nM and 14.9 nM, respectively. The “IC50 (PDE4D)/IC50 (PDE4B)” value on PDE4B amounted to 3.59.

For `COc1ccc([C@@H]2CN(C(=O)[C@@H](O)CO)C[C@@]2(C)[C@@H](C)O)cc1OC1CN(c2ccc(C3CC3)cn2)C1` [Compound 034, (S)-1-((3S,4S)-4-(3-((1-(5-cyclopropylpyridin-2-yl)azetidin-3-yl)oxy)-4-methoxyphenyl)-3-((R)-1-hydroxyethyl)-3-methylpyrrolidin-1-yl)-2,3-dihydroxypropan-1-one], the half-maximal inhibitory concentration (IC50) in test [1] worked out at 0.32 nM; at PDE4B, 0.25 nM; on PDE4D it was 2.96 nM. In addition, the inhibition in vivo at 50 mg/kg amounted to 76.4% in test [2] (setting [4]) and 85.6% in test [2] (setting [3]). In addition, the “IC50 (PDE4D)/IC50 (PDE4B)” value at PDE4B stood at 11.8.

As to `COc1ccc([C@@H]2CN(C(=O)[C@@H](O)CO)C[C@@]2(C)[C@@H](C)O)cc1OC1CN(c2ccc(C(C)C)cn2)C1` [Compound 032, (S)-2,3-dihydroxy-1-((3S,4S)-3-((R)-1-hydroxyethyl)-4-(3-((1-(5-isopropylpyridin-2-yl)azetidin-3-yl)oxy)-4-methoxyphenyl)-3-methylpyrrolidin-1-yl)propan-1-one], the 50% inhibitory concentration (IC50) in test [1] was 0.26 nM; against PDE4B it was 0.33 nM; on PDE4D, 3.25 nM. Besides, the inhibition in vivo at 50 mg/kg in test [2] (setting [4]) came to 75.8%; in test [2] (setting [3]), 84%. For the same compound, the “IC50 (PDE4D)/IC50 (PDE4B)” value on PDE4B is 9.85.

`COc1ccc([C@@H]2CN(C(=O)[C@@H](O)CO)C[C@@]2(C)[C@@H](C)O)cc1OC1CN(c2ncc(C)cc2C#N)C1` [Compound 006, 2-(3-(5-((3S,4S)-1-((S)-2,3-dihydroxypropanoyl)-4-((R)-1-hydroxyethyl)-4-methylpyrrolidin-3-yl)-2-methoxyphenoxy)azetidin-1-yl)-5-methylnicotinonitrile]: the IC50 in test [1] amounted to 2.52 nM; against PDE4B it was 1.37 nM; against PDE4D, 1.34 nM. In addition, the “IC50 (PDE4D)/IC50 (PDE4B)” value on PDE4B turned out to be 0.98.

Regarding `COc1ccc([C@@H]2CN(C(=O)[C@@H](O)CO)C[C@@]2(C)[C@@H](C)O)cc1OC1CN(c2ccc(C)c(C#N)n2)C1` [Compound 003, 6-(3-(5-((3S,4S)-1-((S)-2,3-dihydroxypropanoyl)-4-((R)-1-hydroxyethyl)-4-methylpyrrolidin-3-yl)-2-methoxyphenoxy)azetidin-1-yl)-3-methylpicolinonitrile], the IC50 was 1.48 nM in test [1], 0.41 nM against PDE4B and 0.39 nM on PDE4D. On PDE4B, the “IC50 (PDE4D)/IC50 (PDE4B)” value amounted to 0.95.

As to `COc1ccc([C@@H]2CN(C(=O)[C@@H](O)CO)C[C@@]2(C)[C@@H](C)O)cc1OC1CN(c2cc(C)c(C#N)cn2)C1` [Compound 012, 6-(3-(5-((3S,4S)-1-((S)-2,3-dihydroxypropanoyl)-4-((R)-1-hydroxyethyl)-4-methylpyrrolidin-3-yl)-2-methoxyphenoxy)azetidin-1-yl)-4-methylnicotinonitrile], the results for the IC50 (in test [1]; at PDE4B; against PDE4D) were 2.52 nM, 2.09 nM and 0.56 nM, respectively. Besides, the “IC50 (PDE4D)/IC50 (PDE4B)” value at PDE4B amounted to 0.27.

As to `COc1ccc([C@@H]2CN(C(=O)[C@@H](O)CO)C[C@@]2(C)[C@@H](C)O)cc1OC1CN(c2ccc(OC(C)C)cn2)C1` [Compound 028, (S)-2,3-dihydroxy-1-((3S,4S)-3-((R)-1-hydroxyethyl)-4-(3-((1-(5-isopropoxypyridin-2-yl)azetidin-3-yl)oxy)-4-methoxyphenyl)-3-methylpyrrolidin-1-yl)propan-1-one], the IC50 amounted to 2.94 nM in test [1], 2.22 nM at PDE4B and 3.08 nM on PDE4D. Further, the “IC50 (PDE4D)/IC50 (PDE4B)” value at PDE4B stood at 1.39.
